Results from ChEMBL document CHEMBL1201862, “PubChem BioAssay data set” (2004).
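How tested: cells in 96-well plates exposed to compound for 48 hours at five concentrations. At the GI50, growth is halved.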 Activity calls are given as the source filed them. Rule as the data show it: active = GI50 up to about 1.1 µM and inactive = higher.

How the values were obtained:
Assay in all cases: DTP human tumour cell line panel, 48 h
DLD-1 = test system: DLD-1
DMS-114 = test system: DMS-114
DMS-273 = test system: DMS-273
HOP-18 = test system: HOP-18
M19-MEL = test system: M19-MEL
SNB-78 = test system: SNB-78
KM-20L2 = test system: KM-20L2
XF498 = test system: XF498
RXF 631 = test system: RXF 631

Measured: GI50

COC(CC1(OC)OC(=O)C=C1N)OC (stereo not given)
inactive: DLD-1 > 100 µM | DMS-114 > 100 µM | DMS-273 > 100 µM | HOP-18 > 100 µM | M19-MEL > 100 µM | SNB-78 > 100 µM

O=C(Nc1nc2ccccc2n1Cc1ccccc1)NC12CC3CC(CC(C3)C1)C2
inactive: DLD-1 87.9 µM | DMS-114 57.3 µM | DMS-273 16.9 µM | HOP-18 44.8 µM | KM-20L2 > 100 µM | M19-MEL 61.4 µM | SNB-78 19.8 µM | XF498 17.8 µM

CC1=CC(O)(c2ccc(-c3ccccc3Cl)cc2)OC1=O (stereo not given)
inactive: DLD-1 > 100 µM | DMS-114 > 100 µM | DMS-273 > 100 µM | HOP-18 > 100 µM | KM-20L2 > 100 µM | M19-MEL > 100 µM | RXF 631 > 100 µM

CC(C)(C)OC(=O)c1cccnc1/C=N/O
inactive: DLD-1 > 100 µM | DMS-114 > 100 µM | DMS-273 > 100 µM | HOP-18 > 100 µM | KM-20L2 51.4 µM | M19-MEL > 100 µM | RXF 631 > 100 µM | SNB-78 > 100 µM | XF498 > 100 µM

CCC(=O)c1c(NOC2OC(COC(C)=O)C(OC(C)=O)C(OC(C)=O)C2OC(C)=O)nc(OC)n(C)c1=O (stereo not given)
inactive: DLD-1 > 100 µM | DMS-114 > 100 µM | DMS-273 > 100 µM | KM-20L2 > 100 µM | M19-MEL > 100 µM | RXF 631 > 100 µM | SNB-78 > 100 µM | XF498 > 100 µM

Cn1c(=O)c(C(=O)NC(=O)NCCCCCOC(=O)CCCCCCCCCCC(=O)OCCCCCNC(=O)NC(=O)c2cn(Cc3ccccc3)c(=O)n(C)c2=O)cn(Cc2ccccc2)c1=O
inactive: DLD-1 > 100 µM | DMS-114 > 100 µM | DMS-273 > 100 µM | HOP-18 > 100 µM | KM-20L2 > 100 µM | M19-MEL > 100 µM | SNB-78 > 100 µM | XF498 > 100 µM

COC(=O)[C@H]1C=C[C@@H](C)n2c(=O)c3ccccc3c(=O)n21
inactive: DLD-1 > 100 µM | DMS-114 > 100 µM | DMS-273 > 100 µM | KM-20L2 > 100 µM | M19-MEL > 100 µM | SNB-78 > 100 µM | XF498 > 100 µM

CCN(CC)c1ccc(/N=N/c2ccc(-c3nc4cccnc4s3)cc2)cc1
inactive: DLD-1 > 100 µM | DMS-114 46.5 µM | KM-20L2 > 100 µM | M19-MEL 7.69 µM | SNB-78 > 100 µM | XF498 18.2 µM

CC(=O)Nc1ccc(-c2nnc(SCC(=O)Nc3ccccc3C)o2)cc1
inactive: DLD-1 49.8 µM | DMS-114 > 100 µM | DMS-273 35.4 µM | HOP-18 > 100 µM | KM-20L2 69.3 µM | M19-MEL 70.1 µM | SNB-78 47 µM

Cn1cc(NC(=O)c2cc(NC(=O)CCCCCC(=O)Nc3cc(C(=O)Nc4cc(C(=O)NCCC(=N)N)n(C)c4)n(C)c3)cn2C)cc1C(=O)NCCC(=N)N
inactive: DLD-1 > 100 µM | DMS-114 33 µM | DMS-273 67.3 µM | HOP-18 > 100 µM | KM-20L2 > 100 µM | M19-MEL 15.2 µM | RXF 631 > 100 µM | SNB-78 > 100 µM | XF498 > 100 µM

O=c1cccccc1O.O=c1cccccc1O.O=c1cccccc1O.[SiH4]
inactive: DLD-1 6.43 µM | DMS-114 11.7 µM | DMS-273 14.5 µM | HOP-18 65.9 µM | KM-20L2 3.75 µM | M19-MEL 18.8 µM | XF498 17.7 µM

[N-]=[N+]=Nc1ncnc2c1sc(=S)n2-c1ccccc1
inactive: DLD-1 > 100 µM | DMS-114 > 100 µM | DMS-273 > 100 µM | HOP-18 > 100 µM | KM-20L2 > 100 µM | M19-MEL > 100 µM | SNB-78 > 100 µM | XF498 > 100 µM

O=C(c1ccccc1)N1C2C3CC(OCc4ccccc4)(OCc4ccccc4)C(O3)C21 (stereo not given)
inactive: DLD-1 > 100 µM | DMS-114 > 100 µM | KM-20L2 > 100 µM | M19-MEL > 100 µM | RXF 631 > 100 µM | SNB-78 > 100 µM | XF498 > 100 µM

O=c1cc(-c2cccnc2)[nH]c2cc3c(cc12)OCO3
inactive: DLD-1 4.03 µM | DMS-114 7.01 µM | DMS-273 4.13 µM | HOP-18 1.17 µM | M19-MEL 3.59 µM | SNB-78 27.7 µM | XF498 7.36 µM

COC(=O)C(CBr)CBr
inactive: DLD-1 2.04 µM | DMS-114 2.06 µM | DMS-273 12.7 µM | KM-20L2 6.76 µM | M19-MEL 3.21 µM | RXF 631 3.05 µM | SNB-78 1.79 µM | XF498 2.3 µM

CCCCCCC(O)C/C=C/CCCCCC/C(C(=O)OC)=C(/O)C(=O)OCC (stereo not given)
inactive: DLD-1 > 100 µM | DMS-114 > 100 µM | DMS-273 > 100 µM | HOP-18 > 100 µM | M19-MEL > 100 µM | RXF 631 > 100 µM | SNB-78 > 100 µM | XF498 > 100 µM

C=C1C(=O)OC2/C=C(/C)C3CC(O)C(C)(CC(OC(=O)/C(C)=C/C)C12)O3 (stereo not given)
inactive: DLD-1 1.54 µM | DMS-114 7.01 µM | DMS-273 2.54 µM | HOP-18 17.4 µM | KM-20L2 2.32 µM | M19-MEL 2.96 µM | SNB-78 2.61 µM | XF498 3.56 µM

CN(C)CC/C(=N\Nc1ccc(Cl)cc1Cl)c1ccccc1
inactive: DLD-1 10.3 µM | DMS-114 13.8 µM | DMS-273 13.8 µM | HOP-18 8.85 µM | KM-20L2 14.3 µM | M19-MEL 17.2 µM | SNB-78 13.5 µM

CNC1=Nc2ccc(Cl)cc2C(OP(=O)(N2CCOCC2)N2CCOCC2)=NC1
inactive: DLD-1 > 100 µM | DMS-114 > 100 µM | DMS-273 > 100 µM | HOP-18 > 100 µM | KM-20L2 > 100 µM | M19-MEL > 100 µM | RXF 631 > 100 µM | SNB-78 > 100 µM | XF498 > 100 µM

CCOC(=O)C1=C(c2ccccc2)NC(c2ccccc2)=C(C(=O)OCC)c2c1c(=O)cc[nH]c2=O
inactive: DLD-1 > 100 µM | DMS-273 > 100 µM | KM-20L2 > 100 µM | M19-MEL > 100 µM | RXF 631 34.7 µM | SNB-78 94 µM | XF498 > 100 µM

Nc1ncnc2c1ncn2C1OC(CSCc2ccc(Cl)cc2)C(O)C1O (stereo not given)
inactive: DLD-1 14.6 µM | DMS-114 21.9 µM | DMS-273 30.1 µM | HOP-18 42 µM | KM-20L2 9.55 µM | M19-MEL 33.7 µM | SNB-78 68.9 µM | XF498 22.8 µM

C=CN1C(=O)[C@H](Oc2ccccc2)[C@@H]1c1ccccc1
inactive: DLD-1 28.5 µM | DMS-114 27.6 µM | HOP-18 37.8 µM | KM-20L2 31.7 µM | M19-MEL 43.4 µM | SNB-78 43.5 µM | XF498 26.1 µM

Cn1nc(-c2ccccc2)c(C(=O)/C=C/c2ccc(Cl)cc2)c(N2CCCC2)c1=O
inactive: DLD-1 2.69 µM | DMS-114 2.84 µM | DMS-273 3.62 µM | HOP-18 6.49 µM | KM-20L2 3.78 µM | M19-MEL 7.24 µM | RXF 631 6.12 µM | XF498 10.4 µM

CCOC(=O)NC(=O)c1cn(CCCOC(=O)NCCCCCCNC(=O)OCCCn2cc(C(=O)NC(=O)OCC)c(=O)[nH]c2=O)c(=O)[nH]c1=O
inactive: DLD-1 31.3 µM | DMS-114 15.3 µM | DMS-273 30.7 µM | HOP-18 82.8 µM | KM-20L2 50 µM | M19-MEL 31.9 µM | SNB-78 36.7 µM

CC(=O)CC(=O)CCC(=O)Nc1cccc(C(F)(F)F)c1
inactive: DLD-1 > 100 µM | DMS-114 > 100 µM | DMS-273 > 100 µM | HOP-18 > 100 µM | KM-20L2 > 100 µM | SNB-78 > 100 µM | XF498 > 100 µM

CN(C=O)/C=C/c1cc(O)ccc1O
inactive: DLD-1 20 µM | DMS-114 45.9 µM | DMS-273 > 39.4 µM | HOP-18 14.6 µM | KM-20L2 > 46 µM | M19-MEL 20.8 µM | RXF 631 47.5 µM | SNB-78 30.8 µM

Cc1ccc(NC(=O)CCc2n[nH]c(=S)o2)cc1
inactive: DLD-1 > 100 µM | DMS-114 > 100 µM | DMS-273 > 100 µM | HOP-18 > 100 µM | KM-20L2 > 72.1 µM | M19-MEL > 100 µM | RXF 631 > 100 µM | SNB-78 > 100 µM | XF498 > 100 µM

CC(=O)c1ccc(NC(=O)C(=O)C(C(=O)/C=C/c2ccccc2)C2OC(=O)c3ccccc32)cc1 (stereo not given)
inactive: DLD-1 > 100 µM | DMS-273 > 100 µM | HOP-18 > 100 µM | KM-20L2 > 100 µM | M19-MEL > 100 µM | RXF 631 > 100 µM | SNB-78 > 100 µM | XF498 > 100 µM

N#CC(C#N)=C(N)/C(C#N)=C/c1cc(O)c(O)c(Br)c1
inactive: DLD-1 55.6 µM | DMS-114 29.1 µM | DMS-273 59.2 µM | KM-20L2 31.7 µM | M19-MEL > 100 µM | SNB-78 75.7 µM | XF498 35.7 µM
